Test results taken from US20230089867A1, “CYCLIC PENTAMER COMPOUNDS AS PROPROTEIN CONVERTASE SUBTILISIN/KEXIN TYPE 9 (PCSK9) INHIBITORS FOR THE TREATMENT OF METABOLIC DISORDER” (Novartis AG, priority 2018, published 2023).
pIC50: −log10 of the molar value.

Biological target: human PCSK9 (Homo sapiens, UniProt Q8NBP7)
Assay: PCSK9 ligand binding TR-FRET assay (interference with binding of human PCSK9 to human LDLR)
Details: for Max % inhibition: PCSK9 FRET assay, efficacy (Amax), 100% = 1 uM unlabeled human PCSK9, 0% = DMSO; for pIC50: TR-FRET, human PCSK9 Alexa Fluor 647 / human LDLR extracellular domain-Europium Kryptate, read-out: PCSK9 FRET Assay IC50
In short: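 Threefold compound dilutions were pre-incubated 30 min with PCSK9, after which 4 nM Europium Kryptate-tagged human LDLR ectodomain was added for a further 2 h.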

human PCSK9, sequence (Q8NBP7 153-692): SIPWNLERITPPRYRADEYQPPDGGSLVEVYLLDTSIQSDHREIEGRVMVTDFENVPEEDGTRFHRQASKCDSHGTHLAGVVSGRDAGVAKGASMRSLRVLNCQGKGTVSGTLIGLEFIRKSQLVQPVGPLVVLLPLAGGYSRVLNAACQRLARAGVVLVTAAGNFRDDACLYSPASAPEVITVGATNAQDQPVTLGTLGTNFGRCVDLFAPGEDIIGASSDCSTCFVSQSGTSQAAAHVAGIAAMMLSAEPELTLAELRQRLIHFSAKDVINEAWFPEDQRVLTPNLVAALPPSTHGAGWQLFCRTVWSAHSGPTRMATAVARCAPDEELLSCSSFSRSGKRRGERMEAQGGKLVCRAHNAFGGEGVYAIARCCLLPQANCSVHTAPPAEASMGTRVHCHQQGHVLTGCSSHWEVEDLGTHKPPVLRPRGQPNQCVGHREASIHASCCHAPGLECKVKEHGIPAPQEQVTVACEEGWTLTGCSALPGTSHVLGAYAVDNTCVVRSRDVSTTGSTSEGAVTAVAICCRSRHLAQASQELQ
human PCSK9, sequence (Q8NBP7 31-152 partner limits assumed): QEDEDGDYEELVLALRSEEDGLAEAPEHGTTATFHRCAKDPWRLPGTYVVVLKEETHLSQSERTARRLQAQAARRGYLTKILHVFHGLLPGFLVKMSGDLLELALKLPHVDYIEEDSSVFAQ

| SMILES | Max % inhibition | pIC50 |
| --- | --- | --- |
| CCC/C=C/c1ncc(-c2ccc(Oc3cc(Cl)ccc3CN3C(=O)C[C@@H](Cc4ccccc4)C(=O)N(C)[C@@H](C)CNC(=O)C[C@H](Cc4ccc(Cl)cc4)N(C)C(=O)[C@H](COC)NC(=O)[C@@H]3C)cc2)n1C [Compound 81, (2S,5S,8S,13S,16R)-16-benzyl-1-(4-chloro-2-(4-(1-methyl-2-((E)-pent-1-en-1-yl)-1H-imidazol-5-yl)phenoxy)benzyl)-8-(4-chlorobenzyl)-5-(methoxymethyl)-2,7,13,14-tetramethyl-1,4,7,11,14-pentaazacyclooctadecane-3,6,10,15,18-pentaone] | 87.86% | 7.46 |
| COC[C@@H]1NC(=O)[C@H](C)N(Cc2ccc(Cl)cc2Oc2ccc(-c3cnc(CN4CCCC4)n3C)cc2)C(=O)C[C@@H](Cc2ccccc2)C(=O)N(C)[C@@H](C)CNC(=O)C[C@H](Cc2ccc(Cl)cc2)NC1=O [Compound 256, (2S,5S,8S,13S,16R)-16-benzyl-1-(4-chloro-2-(4-(1-methyl-2-(pyrrolidin-1-ylmethyl)-1H-imidazol-5-yl)phenoxy)benzyl)-8-(4-chlorobenzyl)-5-(methoxymethyl)-2,13,14-trimethyl-1,4,7,11,14-pentaazacyclooctadecane-3,6,10,15,18-pentaone] | 79.36% | 7.28 |
| COC[C@@H]1NC(=O)[C@H](C)N(Cc2c(F)cc(Cl)cc2Oc2ccc(-c3cnc(CN4CCCC4)n3C)cc2)C(=O)C[C@@H](Cc2ccccc2)C(=O)N(C)[C@@H](C)CNC(=O)C[C@H](Cc2ccc(Cl)cc2)N(C)C1=O [Compound 34, (2S,5S,8S,13S,16R)-16-benzyl-1-(4-chloro-2-fluoro-6-(4-(1-methyl-2-(pyrrolidin-1-ylmethyl)-1H-imidazol-5-yl)phenoxy)benzyl)-8-(4-chlorobenzyl)-5-(methoxymethyl)-2,7,13,14-tetramethyl-1,4,7,11,14-pentaazacyclooctadecane-3,6,10,15,18-pentaone] | 95.86% | 9.00 |
| COC[C@@H]1NC(=O)[C@H](C)N(Cc2ccc(Cl)cc2Oc2ccc(-c3cnc(CN4CCCC4)n3C)cc2)C(=O)C[C@@H](Cc2ccccc2)C(=O)N(C)C2CCOCC2NC(=O)C[C@H](Cc2ccc(Cl)cc2)N(C)C1=O (single isomer, unassigned) [Compound 274] | 93.20% | 8.85 |
| COC[C@@H]1NC(=O)[C@@H](C)N(Cc2ccc(Cl)cc2Oc2ccc(-c3cnc(CN(C)C)n3C)cc2)C(=O)C[C@@H](Cc2ccccc2)C(=O)N(C)[C@@H](C)CNC(=O)C[C@H](Cc2ccc(Cl)cc2)N(C)C1=O [Compound 12, (2R,5S,8S,13S,16R)-16-benzyl-1-(4-chloro-2-(4-(2-((dimethylamino)methyl)-1-methyl-1H-imidazol-5-yl)phenoxy)benzyl)-8-(4-chlorobenzyl)-5-(methoxymethyl)-2,7,13,14-tetramethyl-1,4,7,11,14-pentaazacyclooctadecane-3,6,10,15,18-pentaone] | 98.09% | 7.13 |
| COC[C@@H]1NC(=O)[C@H](C)N(Cc2ccc(Cl)cc2Oc2ccc(-c3cnc(CN4CCCC4)n3C)cc2)C(=O)C[C@@H](Cc2ccccc2)C(=O)N(C)[C@@H](C)[C@H](C)NC(=O)C[C@H](Cc2ccc(Cl)cc2)N(C)C1=O [Compound 198, (2S,5S,8S,12S,13S,16R)-16-benzyl-1-(4-chloro-2-(4-(1-methyl-2-(pyrrolidin-1-ylmethyl)-1H-imidazol-5-yl)phenoxy)benzyl)-8-(4-chlorobenzyl)-5-(methoxymethyl)-2,7,12,13,14-pentamethyl-1,4,7,11,14-pentaazacyclooctadecane-3,6,10,15,18-pentaone] | 98.27% | 9.22 |
| Cc1c(CN(C)C)ncn1-c1ccc(Oc2cc(Cl)ccc2CN2C(=O)C[C@@H](Cc3ccccc3)C(=O)N(C)[C@H]3CCCC[C@@H]3NC(=O)C[C@H](Cc3ccc(Cl)cc3)N(C)C(=O)[C@H](CO)NC(=O)[C@@H]2C)cc1 [Compound 278, (4S,7S,10S,14R,16aS,20aS)-14-benzyl-11-(4-chloro-2-(4-(4-((dimethylamino)methyl)-5-methyl-1H-imidazol-1-yl)phenoxy)benzyl)-4-(4-chlorobenzyl)-7-(hydroxymethyl)-5,10,16-trimethylhexadecahydrobenzo[l][1,4,7,11,14]pentaazacyclooctadecine-2,6,9,12,15(3H)-pentaone] | 107.17% | 8.89 |
| COC[C@@H]1NC(=O)[C@H](CCN)N(Cc2ccc(Cl)cc2Oc2ccc(-c3cnc(CN(C)C)n3C)cc2)C(=O)C[C@@H](Cc2ccccc2)C(=O)N(C)[C@H]2CCCC[C@@H]2NC(=O)C[C@H](Cc2ccc(Cl)cc2)N(C)C1=O (single isomer, unassigned) [Compound 109] | 76.18% | 8.12 |
| COC[C@@H]1NC(=O)[C@H](C)N(Cc2ccc(Cl)cc2Oc2ccc(-n3cnc(C(=O)NCCO)c3C)cc2)C(=O)C[C@@H](Cc2ccccc2)C(=O)N(C)[C@@H](C)CNC(=O)C[C@H](Cc2ccc(Cl)cc2)N(C)C1=O [Compound 188, 1-(4-(2-(((2S,5S,8S,13S,16R)-16-benzyl-8-(4-chlorobenzyl)-5-(methoxymethyl)-2,7,13,14-tetramethyl-3,6,10,15,18-pentaoxo-1,4,7,11,14-pentaazacyclooctadecan-1-yl)methyl)-5-chlorophenoxy)phenyl)-N-(2-hydroxyethyl)-5-methyl-1H-imidazole-4-carboxamide] | 75.17% | 7.79 |
| COC[C@@H]1NC(=O)[C@@H](CCN(C)C)N(Cc2ccc(Cl)cc2Oc2ccc(-c3cnc(CN(C)C)n3C)cc2)C(=O)C[C@@H](Cc2ccccn2)C(=O)N(C)[C@H]2CCCC[C@@H]2NC(=O)C[C@H](Cc2ccc(Cl)cc2)N(C)C1=O [Compound 91, (4S,7S,10R,14R,16aS,20aS)-11-(4-chloro-2-(4-(2-((dimethylamino)methyl)-1-methyl-1H-imidazol-5-yl)phenoxy)benzyl)-4-(4-chlorobenzyl)-10-(2-(dimethylamino)ethyl)-7-(methoxymethyl)-5,16-dimethyl-14-(pyridin-2-ylmethyl)hexadecahydrobenzo[l][1,4,7,11,14]pentaazacyclooctadecine-2,6,9,12,15(3H)-pentaone] | 86.95% | 6.77 |
| COC[C@@H]1NC(=O)[C@H](C)N(Cc2ccc(Cl)cc2Oc2cc(F)c(-c3cnc(CN4CCCC4)n3C)c(F)c2)C(=O)C[C@@H](Cc2ccccc2)C(=O)N(C)[C@@H](C)CNC(=O)C[C@H](Cc2ccc(Cl)cc2)N(C)C1=O [Compound 51, (2S,5S,8S,13S,16R)-16-benzyl-1-(4-chloro-2-(3,5-difluoro-4-(1-methyl-2-(pyrrolidin-1-ylmethyl)-1H-imidazol-5-yl)phenoxy)benzyl)-8-(4-chlorobenzyl)-5-(methoxymethyl)-2,7,13,14-tetramethyl-1,4,7,11,14-pentaazacyclooctadecane-3,6,10,15,18-pentaone] | 94.86% | 9.30 |
| COC[C@@H]1NC(=O)[C@H](CC(F)F)N(Cc2ccc(Cl)cc2Oc2ccc(-c3cnc(CN4CCCC4)n3C)cc2)C(=O)C[C@@H](Cc2ccccc2)C(=O)N(C)[C@@H](C)CNC(=O)C[C@H](Cc2ccc(Cl)cc2)N(C)C1=O [Compound 97, (2S,5S,8S,13S,16R)-16-benzyl-1-(4-chloro-2-(4-(1-methyl-2-(pyrrolidin-1-ylmethyl)-1H-imidazol-5-yl)phenoxy)benzyl)-8-(4-chlorobenzyl)-2-(2,2-difluoroethyl)-5-(methoxymethyl)-7,13,14-trimethyl-1,4,7,11,14-pentaazacyclooctadecane-3,6,10,15,18-pentaone] | 90.83% | 8.66 |
| CC[C@H]1C(=O)N[C@@H](COC)C(=O)N(C)[C@@H](Cc2ccc(Cl)cc2)CC(=O)NC[C@H](C)N(C)C(=O)[C@H](Cc2ccccc2)CC(=O)N1Cc1ccc(Cl)cc1Oc1ccc(-c2cnc(CN(C)C)n2C)cc1 [Compound 70, (2S,5S,8S,13S,16R)-16-benzyl-1-(4-chloro-2-(4-(2-((dimethylamino)methyl)-1-methyl-1H-imidazol-5-yl)phenoxy)benzyl)-8-(4-chlorobenzyl)-2-ethyl-5-(methoxymethyl)-7,13,14-trimethyl-1,4,7,11,14-pentaazacyclooctadecane-3,6,10,15,18-pentaone] | 101.10% | 9.05 |
| COC[C@@H]1NC(=O)[C@H](C)N(Cc2ccc(Cl)cc2Oc2ccc(-c3cnc(CN4CC5(COC5)C4)n3C)cc2)C(=O)C[C@@H](Cc2ccccc2)C(=O)N(C)[C@H]2CCCC[C@@H]2NC(=O)C[C@H](Cc2ccc(Cl)cc2)N(C)C1=O [Compound 157, (4S,7S,10S,14R,16aS,20aS)-11-(2-(4-(2-(2-oxa-6-azaspiro[3.3]heptan-6-ylmethyl)-1-methyl-1H-imidazol-5-yl)phenoxy)-4-chlorobenzyl)-14-benzyl-4-(4-chlorobenzyl)-7-(methoxymethyl)-5,10,16-trimethylhexadecahydrobenzo[l][1,4,7,11,14]pentaazacyclooctadecine-2,6,9,12,15(3H)-pentaone] | 89.28% | 8.74 |
| COC[C@@H]1NC(=O)[C@H](CCC(=O)O)N(Cc2ccc(Cl)cc2Oc2ccc(-c3cnc(CN(C)C)n3C)cc2)C(=O)C[C@@H](Cc2ccccc2)C(=O)N(C)[C@H]2CCCC[C@@H]2NC(=O)C[C@H](Cc2ccc(Cl)cc2)N(C)C1=O [Compound 245, 3-((4S,7S,10S,14R,16aS,20aS)-14-benzyl-11-(4-chloro-2-(4-(2-((dimethylamino)methyl)-1-methyl-1H-imidazol-5-yl)phenoxy)benzyl)-4-(4-chlorobenzyl)-7-(methoxymethyl)-5,16-dimethyl-2,6,9,12,15-pentaoxodocosahydrobenzo[l][1,4,7,11,14]pentaazacyclooctadecin-10-yl)propanoic acid] | 104.03% | 8.89 |
